# Key:
# Format in all cases: cell-based
# Conditions in all cases: 16 h treatment, EGFR degradation by HTRF
# EGFR [1] = biological target: T1, EGFR (Homo sapiens, UniProt P00533, L858R/T790M); assay: Cell Degradation 1: EGFR degradation in H1975 cells, HTRF assay
# T1 construct: endogenous in cells; host or cells: H1975
# Summary of the method: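 H1975 cells treated with compound for 16 h, lysed 1 h at room temperature. EGFR measured by HTRF after overnight antibody incubation (665/620 nm). DC50 from four-parameter logistic fit of percent inhibition against concentration.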
# EGFR [2] = biological target: T2, EGFR (Homo sapiens, UniProt P00533, DEL746-750); assay: Cell Degradation 2: EGFR degradation in HCC827 cells, HTRF assay
# T2 construct: endogenous in cells; host or cells: HCC827
# T2 sequence (P00533 with tags, fused parts or gaps DEL746-750): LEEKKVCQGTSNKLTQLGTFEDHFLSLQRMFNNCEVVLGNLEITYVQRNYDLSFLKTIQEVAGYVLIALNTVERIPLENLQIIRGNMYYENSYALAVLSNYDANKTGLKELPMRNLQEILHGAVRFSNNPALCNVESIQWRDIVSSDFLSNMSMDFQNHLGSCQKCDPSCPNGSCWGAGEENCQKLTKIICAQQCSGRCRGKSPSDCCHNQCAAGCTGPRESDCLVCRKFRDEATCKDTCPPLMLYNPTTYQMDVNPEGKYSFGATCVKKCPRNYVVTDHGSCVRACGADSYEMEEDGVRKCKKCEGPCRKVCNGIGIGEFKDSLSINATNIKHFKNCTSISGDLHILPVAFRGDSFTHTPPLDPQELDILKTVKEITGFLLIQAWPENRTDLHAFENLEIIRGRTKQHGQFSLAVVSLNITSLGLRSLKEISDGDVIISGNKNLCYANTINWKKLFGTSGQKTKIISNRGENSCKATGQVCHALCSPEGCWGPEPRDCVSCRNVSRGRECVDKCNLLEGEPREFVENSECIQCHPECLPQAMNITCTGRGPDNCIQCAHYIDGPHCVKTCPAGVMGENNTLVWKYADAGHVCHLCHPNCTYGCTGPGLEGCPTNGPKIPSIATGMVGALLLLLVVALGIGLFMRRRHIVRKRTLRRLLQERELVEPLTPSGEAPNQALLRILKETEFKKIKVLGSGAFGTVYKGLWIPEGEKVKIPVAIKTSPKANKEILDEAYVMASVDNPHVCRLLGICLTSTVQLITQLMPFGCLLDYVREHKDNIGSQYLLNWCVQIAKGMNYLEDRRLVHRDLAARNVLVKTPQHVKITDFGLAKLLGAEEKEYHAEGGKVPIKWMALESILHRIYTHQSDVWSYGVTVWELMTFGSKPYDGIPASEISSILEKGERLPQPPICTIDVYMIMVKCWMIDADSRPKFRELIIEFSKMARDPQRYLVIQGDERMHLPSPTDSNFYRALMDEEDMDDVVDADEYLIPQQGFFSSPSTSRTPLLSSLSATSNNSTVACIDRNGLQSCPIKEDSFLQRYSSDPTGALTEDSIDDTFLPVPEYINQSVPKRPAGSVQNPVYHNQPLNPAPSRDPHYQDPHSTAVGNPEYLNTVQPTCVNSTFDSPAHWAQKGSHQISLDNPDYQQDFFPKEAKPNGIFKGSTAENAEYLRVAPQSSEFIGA
# T2 sequence (Q96SW2 whole entry partner): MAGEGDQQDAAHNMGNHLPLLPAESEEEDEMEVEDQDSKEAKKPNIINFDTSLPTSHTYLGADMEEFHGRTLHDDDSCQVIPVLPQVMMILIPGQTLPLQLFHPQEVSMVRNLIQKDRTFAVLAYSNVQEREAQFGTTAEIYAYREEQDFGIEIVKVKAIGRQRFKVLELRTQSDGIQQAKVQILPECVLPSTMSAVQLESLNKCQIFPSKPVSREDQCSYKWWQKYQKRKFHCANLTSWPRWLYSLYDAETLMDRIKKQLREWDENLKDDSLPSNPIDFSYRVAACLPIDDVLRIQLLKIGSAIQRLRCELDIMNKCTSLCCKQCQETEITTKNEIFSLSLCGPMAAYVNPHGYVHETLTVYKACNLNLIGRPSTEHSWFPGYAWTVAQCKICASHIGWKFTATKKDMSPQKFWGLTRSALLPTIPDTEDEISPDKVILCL
# Summary of the method: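 Compound-treated HCC827 cells were lysed after 16 h and EGFR measured by HTRF (337 nm excitation, 665/620 nm emission) after overnight antibody incubation at room temperature. DC50 came from a four-parameter fit of percent inhibition against compound concentration.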
# EGFR DTC = assay: Cell Degradation 3: EGFR degradation in BaF3 cells (DTC), HTRF assay
# Summary of the method: (§1)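 BaF3 cells expressing EGFR (LTC triple mutant C797S/L858R/T790M or DTC) exposed to compounds for 16 h, 8 doses from 4-fold dilution, 0.2% DMSO. Residual EGFR quantified by HTRF in lysates (triple mutant lysate diluted 1:1); DC50 from four-parameter logistic fit.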
# EGFR LTC = biological target: T3, EGFR LTC (Homo sapiens, UniProt P00533, C797S/L858R/T790M); assay: Cell Degradation 3: EGFR degradation in BaF3 cells (LTC), HTRF assay
# T3 construct: expressed in transfected cells; host or cells: BaF3
# T3 sequence (P00533 25-1210 T790M/C797S/L858R): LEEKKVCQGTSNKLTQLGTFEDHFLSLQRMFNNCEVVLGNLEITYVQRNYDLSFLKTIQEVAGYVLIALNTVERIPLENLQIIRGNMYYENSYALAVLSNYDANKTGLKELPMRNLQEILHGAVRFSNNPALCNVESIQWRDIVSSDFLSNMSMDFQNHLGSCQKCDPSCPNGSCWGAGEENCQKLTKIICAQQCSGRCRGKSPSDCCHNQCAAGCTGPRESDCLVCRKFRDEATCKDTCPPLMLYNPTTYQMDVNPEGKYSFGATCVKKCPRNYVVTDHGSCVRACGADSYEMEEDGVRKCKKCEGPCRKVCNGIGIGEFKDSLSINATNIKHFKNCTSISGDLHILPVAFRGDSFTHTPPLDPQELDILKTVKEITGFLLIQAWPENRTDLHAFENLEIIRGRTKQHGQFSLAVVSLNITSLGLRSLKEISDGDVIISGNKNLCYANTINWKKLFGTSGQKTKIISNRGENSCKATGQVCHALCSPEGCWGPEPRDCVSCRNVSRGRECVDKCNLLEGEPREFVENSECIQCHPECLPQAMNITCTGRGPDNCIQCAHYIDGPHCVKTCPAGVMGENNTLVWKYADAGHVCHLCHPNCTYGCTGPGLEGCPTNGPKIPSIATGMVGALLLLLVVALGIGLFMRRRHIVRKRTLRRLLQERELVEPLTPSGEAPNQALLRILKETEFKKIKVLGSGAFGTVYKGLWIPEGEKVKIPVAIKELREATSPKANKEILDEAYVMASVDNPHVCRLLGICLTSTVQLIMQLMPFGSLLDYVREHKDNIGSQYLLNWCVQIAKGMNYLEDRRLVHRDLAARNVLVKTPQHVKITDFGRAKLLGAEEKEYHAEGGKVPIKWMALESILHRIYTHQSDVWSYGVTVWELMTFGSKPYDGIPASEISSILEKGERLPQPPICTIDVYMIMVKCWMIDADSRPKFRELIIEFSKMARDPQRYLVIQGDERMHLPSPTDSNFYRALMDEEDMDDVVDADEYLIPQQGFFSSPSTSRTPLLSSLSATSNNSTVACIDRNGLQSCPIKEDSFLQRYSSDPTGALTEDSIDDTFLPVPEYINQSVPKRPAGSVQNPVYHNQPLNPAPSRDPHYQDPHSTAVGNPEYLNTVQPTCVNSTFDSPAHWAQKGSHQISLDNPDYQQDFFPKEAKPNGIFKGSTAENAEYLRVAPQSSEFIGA
# Summary of the method: as §1
# T1 sequence (P00533 25-1210 T790M/L858R): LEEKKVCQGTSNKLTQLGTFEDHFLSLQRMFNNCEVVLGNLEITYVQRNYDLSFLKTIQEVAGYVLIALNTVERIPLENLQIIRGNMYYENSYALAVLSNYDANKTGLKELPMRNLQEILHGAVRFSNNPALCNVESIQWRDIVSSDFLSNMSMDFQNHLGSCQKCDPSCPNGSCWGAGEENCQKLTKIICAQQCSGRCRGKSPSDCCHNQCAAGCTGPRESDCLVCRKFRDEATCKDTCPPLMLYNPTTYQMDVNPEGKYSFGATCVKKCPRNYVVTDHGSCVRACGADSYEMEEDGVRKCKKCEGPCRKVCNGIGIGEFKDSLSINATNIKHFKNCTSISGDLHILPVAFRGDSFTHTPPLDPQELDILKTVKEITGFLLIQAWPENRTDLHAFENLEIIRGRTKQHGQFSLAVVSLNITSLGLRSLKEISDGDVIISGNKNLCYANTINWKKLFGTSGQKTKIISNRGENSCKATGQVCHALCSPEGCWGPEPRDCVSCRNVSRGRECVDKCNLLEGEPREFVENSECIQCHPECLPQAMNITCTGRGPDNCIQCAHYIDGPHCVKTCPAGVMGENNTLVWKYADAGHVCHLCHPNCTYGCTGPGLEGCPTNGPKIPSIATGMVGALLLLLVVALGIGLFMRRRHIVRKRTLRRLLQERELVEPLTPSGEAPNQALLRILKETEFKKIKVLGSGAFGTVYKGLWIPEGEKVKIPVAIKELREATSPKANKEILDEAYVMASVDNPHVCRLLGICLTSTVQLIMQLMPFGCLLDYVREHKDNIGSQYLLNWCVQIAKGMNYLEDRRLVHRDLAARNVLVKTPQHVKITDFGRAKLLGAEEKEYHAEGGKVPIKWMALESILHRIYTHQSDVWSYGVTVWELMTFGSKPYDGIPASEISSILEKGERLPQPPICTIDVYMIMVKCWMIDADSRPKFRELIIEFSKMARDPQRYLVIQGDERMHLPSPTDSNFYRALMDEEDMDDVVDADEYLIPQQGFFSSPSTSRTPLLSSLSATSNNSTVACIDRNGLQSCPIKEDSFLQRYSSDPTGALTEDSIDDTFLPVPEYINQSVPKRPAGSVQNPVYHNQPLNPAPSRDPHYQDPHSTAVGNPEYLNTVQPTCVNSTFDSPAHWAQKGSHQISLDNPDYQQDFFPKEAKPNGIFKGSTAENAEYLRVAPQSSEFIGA
DC50 (EGFR [1]),DC50 (EGFR [2]),DC50 (EGFR DTC),DC50 (EGFR LTC),Structure (SMILES)
3 nM,2 nM,11 nM,19 nM,"COc1cc(N2CCC(N3CCN(C[C@H]4C[C@H](c5ccc6c(c5)CN(C5CCC(=O)NC5=O)C6=O)C4)CC3)CC2)c(C)cc1Nc1ncc(Br)c(Nc2cccc3c2N(S(C)(=O)=O)CC3)n1 (stereo partly drawn) [Example 159, 3-(5-((1r,3r)-3-((4-(1-(4-((5-bromo-4-((1-(methylsulfonyl)indolin-7-yl)amino)pyrimidin-2-yl)amino)-5-methoxy-2-methylphenyl)piperidin-4-yl)piperazin-1-yl)methyl)cyclobutyl)-1-oxoisoindolin-2-yl)piperidine-2,6-dione]"
13.8 nM,3.5 nM,11.7 nM,15.7 nM,"CS(=O)(=O)N1CCc2cccc(Nc3nc(Nc4ccc(N5CCC(N6CCN(CCC7CCN(c8cc(F)c(C9CCC(=O)NC9=O)c(F)c8)CC7)CC6)CC5)c(F)c4)nc4[nH]ccc34)c21 (stereo not drawn) [Example 67, 3-(2,6-difluoro-4-(4-(2-(4-(1-(2-fluoro-4-((4-((1-(methylsulfonyl)indolin-7-yl)amino)-7H-pyrrolo[2,3-d]pyrimidin-2-yl)amino)phenyl)piperidin-4-yl)piperazin-1-yl)ethyl)piperidin-1-yl)phenyl)piperidine-2,6-dione]"
4.4 nM,22.1 nM,3 nM,4.7 nM,"CS(=O)(=O)N1CCc2cccc(Nc3nc(Nc4ccc(N5CCC(N6CCN(C(=O)[C@@H]7CCN(c8ccc9c(c8)C(=O)N(C8CCC(=O)NC8=O)C9=O)C7)CC6)CC5)c(F)c4)nc4[nH]ccc34)c21 (stereo partly drawn) [Example 62, 2-(2,6-dioxopiperidin-3-yl)-5-((R)-3-(4-(1-(2-fluoro-4-((4-((1-(methylsulfonyl)indolin-7-yl)amino)-7H-pyrrolo[2,3-d]pyrimidin-2-yl)amino)phenyl)piperidin-4-yl)piperazine-1-carbonyl)pyrrolidin-1-yl)isoindoline-1,3-dione]"
9.8 nM,9.7 nM,176 nM,230 nM,"COc1cc(N2CCN(C3CCN(CCc4ccc(C5CCC(=O)NC5=O)cc4)CC3)CC2)ccc1Nc1ncc(Cl)c(Nc2cccc3c2N(S(C)(=O)=O)CC3)n1 (stereo not drawn) [Example 38, 3-(4-(2-(4-(4-(4-((5-chloro-4-((1-(methylsulfonyl)indolin-7-yl)amino)pyrimidin-2-yl)amino)-3-methoxyphenyl)piperazin-1-yl)piperidin-1-yl)ethyl)phenyl)piperidine-2,6-dione]"
3 nM,20 nM,49 nM,40 nM,"COc1cc(N2CCC(N3CCN(CCc4cc(F)c(C5CCC(=O)NC5=O)c(F)c4)CC3)CC2)c(C)cc1Nc1nc(Nc2cccc3c2N(S(C)(=O)=O)CC3)c2cc[nH]c2n1 (stereo not drawn) [Example 163, 3-(2,6-difluoro-4-(2-(4-(1-(5-methoxy-2-methyl-4-((4-((1-(methylsulfonyl)indolin-7-yl)amino)-7H-pyrrolo[2,3-d]pyrimidin-2-yl)amino)phenyl)piperidin-4-yl)piperazin-1-yl)ethyl)phenyl)piperidine-2,6-dione]"
7 nM,2 nM,14 nM,25 nM,"COc1cc(N2CCC(N3CCN(C[C@H]4CCN(c5ccc6c(c5)CN(C5CCC(=O)NC5=O)C6=O)C4)CC3)CC2)c(C)cc1Nc1ncc(Br)c(Nc2cccc3c2N(S(C)(=O)=O)CC3)n1 (stereo partly drawn) [Example 168, 3-(5-((R)-3-((4-(1-(4-((5-bromo-4-((1-(methylsulfonyl)indolin-7-yl)amino)pyrimidin-2-yl)amino)-5-methoxy-2-methylphenyl)piperidin-4-yl)piperazin-1-yl)methyl)pyrrolidin-1-yl)-1-oxoisoindolin-2-yl)piperidine-2,6-dione]"
10 nM,9.2 nM,35.8 nM,68.3 nM,"CS(=O)(=O)N1CCc2cccc(Nc3nc(Nc4ccc(N5CCC(N6CCN(C(=O)CCN7CCN(c8ccc9c(c8)C(=O)N(C8CCC(=O)NC8=O)C9=O)CC7)CC6)CC5)c(F)c4)nc4[nH]ccc34)c21 (stereo not drawn) [Example 15, 2-(2,6-dioxopiperidin-3-yl)-5-(4-(3-(4-(1-(2-fluoro-4-((4-((1-(methylsulfonyl)indolin-7-yl)amino)-7H-pyrrolo[2,3-d]pyrimidin-2-yl)amino)phenyl)piperidin-4-yl)piperazin-1-yl)-3-oxopropyl)piperazin-1-yl)isoindoline-1,3-dione]"

# The next lines start with the compound.
Structure (SMILES),DC50 (EGFR [1]),DC50 (EGFR [2]),DC50 (EGFR DTC),DC50 (EGFR LTC)
"COc1cc(N2CCC(N3CCN(C(=O)[C@H]4CCN(c5ccc6c(c5)C(=O)N(C5CCC(=O)NC5=O)C6=O)C4)CC3)CC2)ccc1Nc1ncc(Cl)c(Nc2cccc3c2N(S(C)(=O)=O)CC3)n1 (stereo partly drawn) [Example 87, 5-((S)-3-(4-(1-(4-((5-chloro-4-((1-(methylsulfonyl)indolin-7-yl)amino)pyrimidin-2-yl)amino)-3-methoxyphenyl)piperidin-4-yl)piperazine-1-carbonyl)pyrrolidin-1-yl)-2-(26-dioxopiperidin-3-yl)isoindoline-1,3-dione]",3.5 nM,3.1 nM,2.4 nM,16.5 nM
"COc1cc(N2CCC(N3CCN(CCC4CCN(c5ccc(C6CCC(=O)NC6=O)cc5)CC4)CC3)CC2)ccc1Nc1ncc(Cl)c(Nc2cccc3c2N(S(C)(=O)=O)CC3)n1 (stereo not drawn) [Example 35, 3-(4-(4-(2-(4-(1-(4-((5-chloro-4-((1-(methylsulfonyl)indolin-7-yl)amino)pyrimidin-2-yl)amino)-3-methoxyphenyl)piperidin-4-yl)piperazin-1-yl)ethyl)piperidin-1-yl)phenyl)piperidine-2,6-dione]",7.2 nM,8.4 nM,48.1 nM,203 nM
"CS(=O)(=O)N1CCc2cccc(Nc3nc(Nc4ccc(N5CCC(N6CCN(CC7CN(c8ccc9c(c8)C(=O)N(C8CCC(=O)NC8=O)C9=O)C7)CC6)CC5)c(F)c4)ncc3Cl)c21 (stereo not drawn) [Example 76, 5-(3-((4-(1-(4-((5-chloro-4-((1-(methylsulfonyl)indolin-7-yl)amino)pyrimidin-2-yl)amino)-2-fluorophenyl)piperidin-4-yl)piperazin-1-yl)methyl)azetidin-1-yl)-2-(2,6-dioxopiperidin-3-yl)isoindoline-1,3-dione]",3.4 nM,3.3 nM,4.8 nM,8 nM
"CS(=O)(=O)N1CCc2cccc(Nc3nc(Nc4ccc(N5CCC(N6CCN(C(=O)[C@H]7CCN(c8ccc9c(c8)C(=O)N(C8CCC(=O)NC8=O)C9=O)C7)CC6)CC5)c(F)c4)ncc3Cl)c21 (stereo partly drawn) [Example 82, 5-((S)-3-(4-(1-(4-((5-chloro-4-((1-(methylsulfonyl)indolin-7-yl)amino)pyrimidin-2-yl)amino)-2-fluorophenyl)piperidin-4-yl)piperazine-1-carbonyl)pyrrolidin-1-yl)-2-(2,6-dioxopiperidin-3-yl)isoindoline-1,3-dione]",3.2 nM,2.8 nM,3.5 nM,15.1 nM
"CS(=O)(=O)N1CCc2cccc(Nc3nc(Nc4ccc(N5CCC(N6CCN(CCC7CCN(c8ccc(C9CCC(=O)NC9=O)cc8)CC7)CC6)CC5)c5c4OCC5)ncc3Cl)c21 (stereo not drawn) [Example 54, 3-(4-(4-(2-(4-(1-(7-((5-chloro-4-((1-(methylsulfonyl)indolin-7-yl)amino)pyrimidin-2-yl)amino)-2,3-dihydrobenzofuran-4-yl)piperidin-4-yl)piperazin-1-yl)ethyl)piperidin-1-yl)phenyl)piperidine-2,6-dione]",8.9 nM,8.9 nM,120 nM,443 nM
"COc1cc(N2CCC(N3CCN(C(=O)[C@@H]4CCN(c5ccc6c(c5)C(=O)N(C5CCC(=O)NC5=O)C6=O)C4)CC3)CC2)ccc1Nc1ncc(Cl)c(Nc2cccc3c2N(S(C)(=O)=O)CC3)n1 (stereo partly drawn) [Example 88, 5-((R)-3-(4-(1-(4-((5-chloro-4-((1-(methylsulfonyl)indolin-7-yl)amino)pyrimidin-2-yl)amino)-3-methoxyphenyl)piperidin-4-yl)piperazine-1-carbonyl)pyrrolidin-1-yl)-2-(2,6-dioxopiperidin-3-yl)isoindoline-1,3-dione]",4.2 nM,2.7 nM,15.6 nM,43.3 nM
"CS(=O)(=O)N1CCc2cccc(Nc3nc(Nc4ccc(N5CCC(N6CCN(C(=O)C7CN(c8ccc9c(c8)C(=O)N(C8CCC(=O)NC8=O)C9=O)C7)CC6)CC5)c(F)c4)ncc3Cl)c21 (stereo not drawn) [Example 77, 5-(3-(4-(1-(4-((5-chloro-4-((1-(methylsulfonyl)indolin-7-yl)amino)pyrimidin-2-yl)amino)-2-fluorophenyl)piperidin-4-yl)piperazine-1-carbonyl)azetidin-1-yl)-2-(2,6-dioxopiperidin-3-yl)isoindoline-1,3-dione]",2.3 nM,1.7 nM,1.8 nM,2.7 nM
"CS(=O)(=O)N1CCc2cccc(Nc3nc(Nc4ccc(N5CCC(N6CCN(CCC7CCN(c8ccc(C9CCC(=O)NC9=O)cc8)CC7)CC6)CC5)c(F)c4)ncc3Cl)c21 (stereo not drawn) [Example 79, 3-(4-(4-(2-(4-(1-(4-((5-chloro-4-((1-(methylsulfonyl)indolin-7-yl)amino)pyrimidin-2-yl)amino)-2-fluorophenyl)piperidin-4-yl)piperazin-1-yl)ethyl)piperidin-1-yl)phenyl)piperidine-2,6-dione]",6 nM,5.5 nM,49.6 nM,84.6 nM
